Experimental data: patent US5162330A, “Dynemicin C antibiotic, its triacetyl derivative and pharmaceutical composition containing same” (Bristol-Myers Squibb Co., priority 1990, dated 1992)
≈ marks a conversion by molar mass, not a printed value.

Legend:
gram-negative organisms = experiment: In vitro antibacterial activity, gram-negative organisms as a group; type: cell-based; settings: other gram-negatives than P. aeruginosa, except Enterobacter cloacae IPM-12 and Serratia marcescens IPM-16
Procedure: (§1) The minimum inhibitory concentration (MIC) was determined by a two-fold serial tube dilution method using nutrient agar (pH7, Difco containing 10^5 cfu/ml).

[1] = tested on: murine and human tumor cell lines; experiment: In vitro cytotoxicity, tumor cell lines as a group; type: cell-based; settings: in words
Procedure: (§2) Dynemicin C and its triacetate derivative were tested for in vitro cytotoxicity against murine and human tumor cell lines. Dynemicin A and its triacetate derivative were used as reference compounds. B16-F10 (murine melanoma) cells were grown to the logarithmic phase in enriched Eagle minimum essential medium (MEM) supplemented with fetal calf serum (FCS, 10%) and kanamycin (60 mcg/ml) and HCT-116 (human colon carcinoma) cells in Maccoy's 5A medium supplemented with FCS (10%), penicillin (100 μ/ml) and streptomycin (100 mcg/ml), and were harvested and inoculated into wells of the 96- or 24-well tissue culture plate with test materials at concentrations of 1.5×10^4, 1.3×10^4, 1.3×10^4, 2.5×10^4 and 3.0×10^4 cells/ml., respectively. They were incubated at 37° C. in a humidified atmosphere of 5% CO2 and 95% air for 72 hours. The cytotoxic activities were determined colorimetrically at 540 nm after staining viable cells with 0.006% neutral red solution.

gram-positive organisms = experiment: In vitro antibacterial activity, gram-positive organisms as a group; type: cell-based
Procedure: as §1

C. neoformans IAM4514 = experiment: In vitro antifungal MIC; type: cell-based, Cryptococcus neoformans
Procedure: (§3) The antifungal MICs of dynemicin C and its triacetate were determined by an agar dilution method on yeast morphology agar adjusted to pH7.0 with 1/15M phosphate buffer. A 5 μl aliquot of fungal suspension containing 10^6 cells/ml was inoculated onto the surface of the antibiotic-containing agar plates with a multiinoculator.

[2] = tested on: HCT-116 (human colon carcinoma) cells; experiment: In vitro cytotoxicity; type: cell-based; settings: 72 hours, 37° C., neutral red, 540 nm
Procedure: as §2

[3] = tested on: B16-F10 (murine melanoma) cells; experiment: In vitro cytotoxicity; type: cell-based; settings: Mus musculus, 72 hours, 37° C., neutral red, 540 nm
Procedure: as §2

Solubility = type: physicochemical
[4] = tested on: Cryptococcus neoformans D49; experiment: In vitro antifungal MIC; type: cell-based
Procedure: as §3

[5] = tested on: Candida albicans ATCC 38247; experiment: In vitro antifungal MIC; type: cell-based
Procedure: as §3

P. rettgeri IPM-14 = experiment: In vitro antibacterial MIC; type: cell-based; settings: Providencia rettgeri, IPM14, 18 h, pH 7
Procedure: as §1

P. vulgaris IPM-13 = experiment: In vitro antibacterial MIC; type: cell-based; settings: Proteus vulgaris, IPM13, 18 h, pH 7
Procedure: as §1

X. maltophilia GN12873 = experiment: In vitro antibacterial MIC; type: cell-based; settings: Stenotrophomonas maltophilia, pH 7, nutrient agar pH7, 32° C., 18 hours
Procedure: as §1

S. aureus smith = experiment: In vitro antibacterial MIC; type: cell-based; settings: Staphylococcus aureus, 18 h, pH 7
Procedure: as §1

K. pneumoniae PCI 602 = experiment: In vitro antibacterial MIC; type: cell-based; settings: Klebsiella pneumoniae, PCI602, 18 h, pH 7
Procedure: as §1

S. aureus A15036 (MRSA) = experiment: In vitro antibacterial MIC; type: cell-based; settings: Staphylococcus aureus, 18 h, pH 7
Procedure: as §1

P. aeruginosa A20599 = experiment: In vitro antibacterial MIC; type: cell-based; settings: Pseudomonas aeruginosa, A20599, 18 h, pH 7
Procedure: as §1

P. aeruginosa IPM-9 = experiment: In vitro antibacterial MIC; type: cell-based; settings: Pseudomonas aeruginosa, IPM9, 18 h, pH 7
Procedure: as §1

P. cepecia A21213 = experiment: In vitro antibacterial MIC; type: cell-based; settings: 18 h, pH 7
Procedure: as §1

P. cepecia No. 651 = experiment: In vitro antibacterial MIC; type: cell-based; settings: 18 h, pH 7
Procedure: as §1

P. aeruginosa KKA19 = experiment: In vitro antibacterial MIC; type: cell-based; settings: Pseudomonas aeruginosa, pH 7, nutrient agar pH7, 32° C., 18 hours
Procedure: as §1

S. epidermidis 11-1230 = experiment: In vitro antibacterial MIC; type: cell-based; settings: Staphylococcus epidermidis, 111230, 18 h, pH 7
Procedure: as §1

S. marcescens IPM-15 = experiment: In vitro antibacterial MIC; type: cell-based; settings: Serratia marcescens, IPM15, 18 h, pH 7
Procedure: as §1

P. aeruginosa A9843A = experiment: In vitro antibacterial MIC; type: cell-based; settings: Pseudomonas aeruginosa, 18 h, pH 7
Procedure: as §1

X. maltophilia No. 661 = experiment: In vitro antibacterial MIC; type: cell-based; settings: Stenotrophomonas maltophilia, pH 7, nutrient agar pH7, 32° C., 18 hours
Procedure: as §1

P. aeruginosa IPM-8 = experiment: In vitro antibacterial MIC; type: cell-based; settings: Pseudomonas aeruginosa, IPM8, 18 h, pH 7
Procedure: as §1

M. morganii I510 = experiment: In vitro antibacterial MIC; type: cell-based; settings: Morganella morganii, I510, 18 h, pH 7
Procedure: as §1

S. marcescens IPM-16 = experiment: In vitro antibacterial MIC; type: cell-based; settings: Serratia marcescens, IPM16, 18 h, pH 7
Procedure: as §1

E. coli Juhl A15119 = experiment: In vitro antibacterial MIC; type: cell-based; settings: Escherichia coli, JUHLA15119, 18 h, pH 7
Procedure: as §1

E. faecalis A9808 = experiment: In vitro antibacterial MIC; type: cell-based; settings: Enterococcus faecalis, A9808, 18 h, pH 7
Procedure: as §1

M. luteus PCI 1001 = experiment: In vitro antibacterial MIC; type: cell-based; settings: Micrococcus luteus, PCI1001, pH 7, nutrient agar pH7, 32° C., 18 hours
Procedure: as §1

E. coli 255 = experiment: In vitro antibacterial MIC; type: cell-based; settings: Escherichia coli, 255, 18 h, pH 7
Procedure: as §1

S. aureus IPM-24 (MRSA) = experiment: In vitro antibacterial MIC; type: cell-based; settings: Staphylococcus aureus, 18 h, pH 7
Procedure: as §1

E. faecium A24817 = experiment: In vitro antibacterial MIC; type: cell-based; settings: Enterococcus faecium, pH 7, nutrient agar pH7, 32° C., 18 hours
Procedure: as §1

P. mirabilis IFO 3849 = experiment: In vitro antibacterial MIC; type: cell-based; settings: Proteus mirabilis, IFO3849, 18 h, pH 7
Procedure: as §1

E. cloacae IPM-12 = experiment: In vitro antibacterial MIC; type: cell-based; settings: Enterobacter cloacae, IPM12, 18 h, pH 7
Procedure: as §1

[6] = tested on: Pseudomonas aeruginosa species; experiment: In vitro antibacterial activity, Pseudomonas aeruginosa as a group; type: cell-based; settings: in words
Procedure: as §1

COC1=C(C=O)C(C)C23OC24c2cc(O)c5c(c2NC3C#CC=CC#CC14)C(=O)c1c(O)ccc(O)c1C5=O (centres unmarked) [Dynemicin C]
activity against gram-negatives compared with amikacin (gram-negative organisms): activity better than amikacin | cytotoxic activity compared with dynemicin A [1]: almost the same activity as dynemicin A | activity against gram-positive organisms compared with amikacin (gram-positive organisms; comparison in words): much better activities against these organisms than amikacin | activity against gram-positive organisms (gram-positive organisms; in words): strong activity | activity (compared with amphotericin B and ketoconazole) (C. neoformans IAM4514; C. neoformans IAM4514, in words): much more active than amphotericin B and ketoconazole | MIC (C. neoformans IAM4514; Cryptococcus neoformans, IAM4514, 40 h, pH 7): 0.013 mg/L (≈ 0.0249 µM) | IC50 [2]: 0.0086 mg/L (≈ 0.0165 µM) | IC50 [3]: 0.0028 mg/L (≈ 0.00537 µM) | solubility in 1,4-dioxane (Solubility; 1,4-dioxane): soluble | solubility in acetonitrile (Solubility; acetonitrile): soluble | solubility in dimethylformamide (Solubility; dimethylformamide): soluble | solubility in dimethylsulfoxide (Solubility; dimethylsulfoxide): soluble | solubility in ethyl acetate (Solubility; ethyl acetate): slightly soluble | solubility in methanol (Solubility; methanol): slightly soluble | solubility in n-hexane (Solubility; n-hexane): practically insoluble | solubility in water (Solubility; water): practically insoluble | activity (compared with amphotericin B and ketoconazole) ([4]; Cryptococcus neoformans D49, in words): much more active than amphotericin B and ketoconazole | MIC ([4]; Cryptococcus neoformans, D49, 40 h, pH 7): 0.0063 mg/L (≈ 0.0121 µM) | activity compared with ketoconazole ([5]; Candida albicans ATCC 38247, amphotericin resistant, in words): stronger than that of ketoconazole | MIC ([5]; Candida albicans, ATCC38247, 40 h, pH 7): 0.8 mg/L (≈ 1.53 µM) | MIC (P. rettgeri IPM-14): 0.1 mg/L (≈ 0.192 µM) | MIC (P. vulgaris IPM-13): 0.05 mg/L (≈ 0.0959 µM) | MIC (X. maltophilia GN12873): 100 mg/L (≈ 192 µM) | MIC (S. aureus smith): < 0.0002 mg/L | MIC (K. pneumoniae PCI 602): 0.8 mg/L (≈ 1.53 µM) | MIC (S. aureus A15036 (MRSA)): < 0.0002 mg/L | MIC (P. aeruginosa A20599): 100 mg/L (≈ 192 µM) | MIC (P. aeruginosa IPM-9): 100 mg/L (≈ 192 µM) | MIC (P. cepecia A21213): 0.1 mg/L (≈ 0.192 µM) | MIC (P. cepecia No. 651): 0.1 mg/L (≈ 0.192 µM) | MIC (P. aeruginosa KKA19): 100 mg/L (≈ 192 µM) | MIC (S. epidermidis 11-1230): < 0.0002 mg/L | MIC (S. marcescens IPM-15): 25 mg/L (≈ 47.9 µM) | MIC (P. aeruginosa A9843A): 100 mg/L (≈ 192 µM) | MIC (X. maltophilia No. 661): 1.6 mg/L (≈ 3.07 µM) | MIC (P. aeruginosa IPM-8): 100 mg/L (≈ 192 µM) | MIC (M. morganii I510): 0.1 mg/L (≈ 0.192 µM) | MIC (S. marcescens IPM-16): 100 mg/L (≈ 192 µM) | MIC (E. coli Juhl A15119): 100 mg/L (≈ 192 µM) | MIC (E. faecalis A9808): 0.0008 mg/L (≈ 0.00153 µM) | MIC (M. luteus PCI 1001): 0.0008 mg/L (≈ 0.00153 µM) | MIC (E. coli 255): 100 mg/L (≈ 192 µM) | MIC (S. aureus IPM-24 (MRSA)): < 0.0002 mg/L | MIC (E. faecium A24817): 0.0008 mg/L (≈ 0.00153 µM) | MIC (P. mirabilis IFO 3849): 0.8 mg/L (≈ 1.53 µM) | MIC (E. cloacae IPM-12): 100 mg/L (≈ 192 µM) | activity against Pseudomonas aeruginosa species [6]: did not show any activity
